Results reported in PubChem BioAssay AID2060352 (Molecular Pharmacology Branch, DTP, NCI, 2025).
Several values for one entry are separate records, joined by “and”; a condition that tells them apart may be missing. Identical values can stand only once.

Test system: 616215-338-R-J1-PDC spheroid with HUVEC/MSC, viability
Experiment: Anticancer human tumor 616215-338-R-J1-PDC patient-derived colon adenocarcinoma cell line growth inhibition [TAK]
Details: for viability, T/C: stronger effect = lower value
Excerpt: Combinatorial screen of targeted agents with TAK-243 and ipatasertib in multi-cell type tumor spheroids
A high-throughput screen of multi-cell type tumor spheroids was designed to identify active combinations of targeted small molecules and TAK-243 or ipatasertib. Complex spheroids include a stromal component modeled by human endothelial cells (HUVEC) and fibroblasts modeled by human mesenchymal stem cells (MSCs). The concentration ranges selected for each drug and investigational agent were based upon clinically achievable concentrations if the clinical Cmax of the agent was known.
Compounds. The drugs and investigational agents: TAK-243 (785004), ipatasertib (767898), everolimus (733504), selumetinib (741078), bortezomib (756655), trametinib (758246), ixazomib (758254), vemurafenib (761431), dabrafenib (764134), sapanisertib (764658), alpelisib (765974), and copanlisib (816437), were obtained from the National Cancer Institute (NCI) Developmental Therapeutics Program Chemical Repository. The FDA-approved anticancer drug set is available from the NCI Developmental Therapeutics Program. […] The stock solutions were prepared in dimethyl sulfoxide (DMSO, Sigma-Aldrich, St. Louis, MO, cat. D2650) at 800-fold the tested concentration and stored at -70 degrees C prior to their use. All drugs and investigational agents were tested over a range starting from a high concentration at or near the clinical Cmax and decreasing in half-log increments. If the clinical Cmax for an agent had not been determined, the highest concentration tested was 10 microM.
NCI60 Cell Culture. NCI60 cell lines were obtained from the NCI Developmental Therapeutics Program Tumor Repository. For each lot of cells, the Repository performed Applied Biosystems AmpFLSTR Identifiler testing with PCR amplification to confirm consistency with the published Identifier STR profile for each cell line. Cells were kept in continuous culture for no more than 20 passages. The optimal seeding densities for each of the cell lines at each time point assessed were determined prior to performing the concentration response studies. Briefly, the NCI60 human tumor lines were grown as monolayers in RPMI 1640 medium supplemented with 10% FBS and 2 mmol/L L-glutamine.
An additional 2 lines were from the NCI60 cell line panel including melanomas, MALME-3M and SK-MEL-2. Pooled donor human umbilical vein endothelial cells (HUVEC, Lonza, cat. CC-2519) and human mesenchymal stem cells (hMSC, Lonza, cat. PT-2501) were purchased from Lonza (Walkersville, MD).
PDMR cell lines were grown in complete medium (DC medium): Dulbecco's modified Eagle's medium (DMEM)/F12 supplemented with 5% fetal bovine serum (FBS), 2 mM L-glutamine, 100 U/mL penicillin and 100 µg/ml streptomycin, 0.4 µg/ml hydrocortisone, 10 ng/ml epidermal growth factor (EGF) recombinant human protein, 24 µg/mL adenine, and 0.1 mg/mL primocin. During culture from frozen stock vials, PDMR cells were cultured in the same medium containing 10 µM Y-27632 (see Table 3). The PDCs were cultured in complete DMEM/F12 media without 10 microM Y-27632 dihydrochloride for at least two passages prior to the screen. The pooled donor HUVEC and hMSC were cultured in endothelial cell growth medium 2 (PromoCell, Heidelberg, Germany, cat. C-22011) and mesenchymal stem cell growth medium 2 (PromoCell, cat. C-28009), respectively. For all experiments, HUVEC and hMSC were used at passages </=5.
For the pre-screen, cell seeding densities were determined from a titration spanning the range from 5,000 to 313 cells per well. The mct-spheroids including 60% malignant cells, 25% HUVEC and 15% MSC dispensed as a mixture into U-bottom Ultra-Low Attachment 384-well plates (Corning, NY)
High-throughput Drug Combination Screening.
Prior to their inoculation into 384-well plates, malignant cells, HUVEC, and hMSC were removed from T flasks using TrypLE express (Thermo Fisher Scientific, cat. 12605036) and harvested by centrifugation for 5 min at 233 x g. […]

[1] = curve of first compound, second compound 0.3 µM
[2] = curve of first compound, second compound 0.949 µM
[3] = curve of first compound, second compound 3 µM
[4] = curve of first compound, second compound 9.49 µM
[5] = curve of first compound, second compound 30 µM
[6] = second compound 0.3 µM, first compound 0.316 µM
[7] = second compound 0.3 µM, first compound 1 µM
[8] = second compound 0.949 µM, first compound 0.316 µM
[9] = second compound 0.949 µM, first compound 1 µM
[10] = second compound 3 µM, first compound 0.316 µM
[11] = second compound 3 µM, first compound 1 µM
[12] = second compound 9.49 µM, first compound 0.316 µM
[13] = second compound 9.49 µM, first compound 1 µM
[14] = second compound 30 µM, first compound 0.316 µM
[15] = second compound 30 µM, first compound 1 µM
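Also: spheroids exposed to drugs for 7 days before readout.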

Compound: Cn1cnc2c(F)c(Nc3ccc(Br)cc3Cl)c(C(=O)NOCCO)cc21
- viability, T/C (compound 0.00949 µM): 115% and 123%
- viability, T/C (compound 0.03 µM): 109% and 107%
- viability, T/C (compound 0.0949 µM): 98.8% and 134%
- viability, T/C (compound 0.3 µM): 64.2% and 90.9%
- viability, T/C (compound 0.949 µM): 43.6% and 36.8%
- viability, T/C (compound 3 µM): 28.2% and 22.3%
- IC50 (curve of compound): 632 nM and 695 nM

Compound: CC(C)n1nc(-c2ccc3oc(N)nc3c2)c2c(N)ncnc21
- viability, T/C (compound 0.000316 µM): 95.9% and 105%
- viability, T/C (compound 0.001 µM): 115% and 107%
- viability, T/C (compound 0.00316 µM): 99.9% and 114%
- viability, T/C (compound 0.01 µM): 112% and 130%
- viability, T/C (compound 0.0316 µM): 127% and 146%
- viability, T/C (compound 0.1 µM): 94% and 38%
- IC50 (curve of compound): > 100 nM and 84.7 nM

Compound: CC(=O)Nc1cccc(-n2c(=O)n(C3CC3)c(=O)c3c(Nc4ccc(I)cc4F)n(C)c(=O)c(C)c32)c1
- viability, T/C (compound 94.9 pM): 97% and 104%
- viability, T/C (compound 0.0003 µM): 110% and 106%
- viability, T/C (compound 0.000949 µM): 134% and 90.8%
- viability, T/C (compound 0.003 µM): 90.5% and 64%
- viability, T/C (compound 0.00949 µM): 33.2% and 29.1%
- viability, T/C (compound 0.03 µM): 5.55% and 17.7%
- IC50 (curve of compound): 6.78 nM and 4.71 nM

Compound: CCCS(=O)(=O)Nc1ccc(F)c(C(=O)c2c[nH]c3ncc(-c4ccc(Cl)cc4)cc23)c1F
- viability, T/C (compound 0.316 µM): 110% and 87.2%
- viability, T/C (compound 1 µM): 99.9% and 99.5%
- viability, T/C (compound 3.16 µM): 90.2% and 81%
- viability, T/C (compound 10 µM): 16.4% and 24.1%
- viability, T/C (compound 31.6 µM): 106% and 4.96%
- viability, T/C (compound 100 µM): 64.9% and 98.7%

Compound: CCCS(=O)(=O)Nc1ccc(F)c(C(=O)c2c[nH]c3ncc(-c4ccc(Cl)cc4)cc23)c1F + CC(C)NCC(C(=O)N1CCN(c2ncnc3c2C(C)CC3O)CC1)c1ccc(Cl)cc1
- IC50 [1]: 7500 nM
- IC50 [2]: 6750 nM
- IC50 [3]: 2760 nM
- IC50 [4]: < 316 nM
- IC50 [5]: < 316 nM
- viability, T/C [6]: 90.8%
- viability, T/C [7]: 98.1%
- viability, T/C (second compound 0.3 µM, first compound 3.16 µM): 103%
- viability, T/C (second compound 0.3 µM, first compound 10 µM): 23.8%
- viability, T/C (second compound 0.3 µM, first compound 31.6 µM): 3.87%
- viability, T/C (second compound 0.3 µM, first compound 100 µM): 75%
- viability, T/C [8]: 107%
- viability, T/C [9]: 114%
- viability, T/C (second compound 0.949 µM, first compound 3.16 µM): 104%
- viability, T/C (second compound 0.949 µM, first compound 10 µM): 16.6%
- viability, T/C (second compound 0.949 µM, first compound 31.6 µM): 1.77%
- viability, T/C (second compound 0.949 µM, first compound 100 µM): 46.8%
- viability, T/C [10]: 90.5%
- viability, T/C [11]: 76.8%
- viability, T/C (second compound 3 µM, first compound 3.16 µM): 48%
- viability, T/C (second compound 3 µM, first compound 10 µM): 7.53%
- viability, T/C (second compound 3 µM, first compound 31.6 µM): 0.1%
- viability, T/C (second compound 3 µM, first compound 100 µM): 3.35%
- viability, T/C [12]: 29.1%
- viability, T/C [13]: 28.8%
- viability, T/C (second compound 9.49 µM, first compound 3.16 µM): 23.2%
- viability, T/C (second compound 9.49 µM, first compound 10 µM): 3.54%
- viability, T/C (second compound 9.49 µM, first compound 31.6 µM): 0.12%
- viability, T/C (second compound 9.49 µM, first compound 100 µM): 1.39%
- viability, T/C [14]: 14.1%
- viability, T/C [15]: 15.2%
- viability, T/C (second compound 30 µM, first compound 3.16 µM): 9.06%
- viability, T/C (second compound 30 µM, first compound 10 µM): 0.4%
- viability, T/C (second compound 30 µM, first compound 31.6 µM): 0.13%
- viability, T/C (second compound 30 µM, first compound 100 µM): 0.3%

Compound: COc1c(OCCCN2CCOCC2)ccc2c3n(c(=NC(=O)c4cnc(N)nc4)nc12)CCN3
- viability, T/C (compound 0.00316 µM): 108% and 106%
- viability, T/C (compound 0.01 µM): 108% and 113%
- viability, T/C (compound 0.0316 µM): 117% and 114%
- viability, T/C (compound 0.1 µM): 57.7% and 54.2%
- viability, T/C (compound 0.316 µM): 27.8% and 31.5%
- viability, T/C (compound 1 µM): 17.4% and 16.5%
- IC50 (curve of compound): 129 nM and 118 nM

Compound: COc1c(OCCCN2CCOCC2)ccc2c3n(c(=NC(=O)c4cnc(N)nc4)nc12)CCN3 + CC(C)NCC(C(=O)N1CCN(c2ncnc3c2C(C)CC3O)CC1)c1ccc(Cl)cc1
- IC50 [1]: 99.4 nM
- IC50 [2]: 73.1 nM
- IC50 [3]: 9.23 nM
- IC50 [4]: < 3.16 nM
- IC50 [5]: < 3.16 nM
- viability, T/C (second compound 0.3 µM, first compound 0.00316 µM): 101%
- viability, T/C (second compound 0.3 µM, first compound 0.01 µM): 113%
- viability, T/C (second compound 0.3 µM, first compound 0.0316 µM): 110%
- viability, T/C (second compound 0.3 µM, first compound 0.1 µM): 49.7%
- viability, T/C [6]: 27.2%
- viability, T/C [7]: 17.6%
- viability, T/C (second compound 0.949 µM, first compound 0.00316 µM): 113%
- viability, T/C (second compound 0.949 µM, first compound 0.01 µM): 117%
- viability, T/C (second compound 0.949 µM, first compound 0.0316 µM): 83.3%
- viability, T/C (second compound 0.949 µM, first compound 0.1 µM): 37.4%
- viability, T/C [8]: 24.4%
- viability, T/C [9]: 15.8%
- viability, T/C (second compound 3 µM, first compound 0.00316 µM): 64.3%
- viability, T/C (second compound 3 µM, first compound 0.01 µM): 49.7%
- viability, T/C (second compound 3 µM, first compound 0.0316 µM): 33.9%
- viability, T/C (second compound 3 µM, first compound 0.1 µM): 26.4%
- viability, T/C [10]: 19.1%
- viability, T/C [11]: 15.6%
- viability, T/C (second compound 9.49 µM, first compound 0.00316 µM): 23.5%
- viability, T/C (second compound 9.49 µM, first compound 0.01 µM): 31.1%
- viability, T/C (second compound 9.49 µM, first compound 0.0316 µM): 20.9%
- viability, T/C (second compound 9.49 µM, first compound 0.1 µM): 14.4%
- viability, T/C [12]: 12.7%
- viability, T/C [13]: 14.9%
- viability, T/C (second compound 30 µM, first compound 0.00316 µM): 11.7%
- viability, T/C (second compound 30 µM, first compound 0.01 µM): 12.8%
- viability, T/C (second compound 30 µM, first compound 0.0316 µM): 9.99%
- viability, T/C (second compound 30 µM, first compound 0.1 µM): 9.6%
- viability, T/C [14]: 8.41%
- viability, T/C [15]: 7.42%

Compound: CC(C)NCC(C(=O)N1CCN(c2ncnc3c2C(C)CC3O)CC1)c1ccc(Cl)cc1 (stereo not drawn)
- viability, T/C (compound 9.49 µM): 26.9% [middle of 10 runs]
- viability, T/C (compound 30 µM): 12.7% [middle of 10 runs]
- IC50 (compound alone, run of 02/20/2020): 6.46 µM [middle of 5 runs]
- IC50 (compound alone, run of 03/19/2020): 5.01 µM [middle of 5 runs]
